The results in this text go back to patent publication US11109593B2, “Isoxazolin-5-one derivative and herbicide containing same as active ingredient” (HOKKO CHEMICAL INDUSTRY CO., LTD., priority 2017, dated 2021).

Common to all, as to assay type: in vivo
Assay [1] deals with Echinochloa crus-galli. Description: Test Example 1: herbicidal effect test by treatment of rice paddy soil (immediately after seeding). Conditions: 120 g/10a active ingredient, dry weight vs untreated area, 14 days after treatment. The method, boiled down:
(§1)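 Paddy soil in pots with compound fertilizer, puddled; 30 seeds per species sown at 0–1 cm, flooded ~3 cm, greenhouse. Water-diluted emulsions dropped onto water immediately after seeding at 120 g active ingredient per 10 ares, duplicate. Herbicidal rate (%) from plant dry weight versus untreated, 14 days after treatment.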

Assay [2] has as its system Scirpus juncoides. The assay is described as above. The following applies: 120 g/10a active ingredient, dry weight vs untreated area, 14 days after treatment. The method, boiled down: as §1
Assay [3] relates to broad leaf weeds (Lindernia pyxidaria and Monochoria vaginalis). The assay is described as above. The following applies: 120 g/10a active ingredient, dry weight vs untreated area, 14 days after treatment. The method, boiled down: as §1
Assay [4] relates to Echinochloa crus-galli. Briefly: Test Example 2: herbicidal effect test by treatment during growing period in paddy rice cultivation (seven days after seeding). The following applies: 120 g/10a active ingredient, assessed 14 days after treatment, dry weight vs untreated area. The method, boiled down:
(§2)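 Sow 30 seeds per species (0–1 cm) into puddled, fertilized paddy soil; keep flooded ~3 cm in greenhouse. Day 7 after seeding: drop water-diluted emulsion, 120 g a.i./10 ares. Harvest 14 d post-treatment; compare dry weight with untreated pots (duplicate).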

Assay [5] relates to Scirpus juncoides. The description is as above. The following applies: 120 g/10a active ingredient, assessed 14 days after treatment, dry weight vs untreated area. The method, boiled down: as §2
Assay [6] has as its system broad leaf weeds (Lindernia pyxidaria and Monochoria vaginalis). Described as above. The following applies: 120 g/10a active ingredient, assessed 14 days after treatment, dry weight vs untreated area. The method, boiled down:
as §2

For assay [7], the system named is Amaranthus viridis. Briefly: Test Example 3: herbicidal effect test by treatment of dry field farming soil (one day after seeding). The following applies: 120 g/10a active ingredient, evaluated 14 days after treatment. The method, boiled down: (§3)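 Weeds were seeded into the upper soil layer of alluvial field soil and, one day afterwards, the soil surface was sprayed with water-diluted emulsion delivering 120 g active ingredient per 10 ares. Mean plant dry weight relative to untreated pots after 14 days gave the herbicidal rate, tested in duplicate.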

Assay [8] relates to Chenopodium album. The assay is described as above. Conditions: 120 g/10a active ingredient, evaluated 14 days after treatment. The method, boiled down:
as §3

Assay [9] has as its system Echinochloa crus-galli. The assay is described as above. Conditions: 120 g/10a active ingredient, evaluated 14 days after treatment. The method, boiled down:
as §3

Assay [10] relates to southern crabgrass. The description is as above. Conditions: 120 g/10a active ingredient, evaluated 14 days after treatment. The method, boiled down:
as §3

Assay [11] relates to Amaranthus viridis. Description: Test Example 4: herbicidal effect test by treatment of leave and stem in dry field farming (seven days after seeding). The following applies: 120 g/10a active ingredient; emulsion sprayed seven days after seeding; evaluated 14 days after treatment. The method, boiled down:
(§4)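 Twenty seeds per species were mixed into the top 1 cm of alluvial soil in 36 cm^2 pots; emulsions were sprayed seven days after seeding at 100 L per 10 ares (120 g active ingredient per 10 ares). Herbicidal rate (%) = {1 − treated/untreated mean dry weight} × 100, 14 days after treatment, duplicate.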

Assay [12] deals with Chenopodium album. Described as above. The following applies: 120 g/10a active ingredient; emulsion sprayed seven days after seeding; evaluated 14 days after treatment. The method, boiled down: as §4
The test system of assay [13] is Echinochloa crus-galli. Described as above. Conditions: 120 g/10a active ingredient; emulsion sprayed seven days after seeding; evaluated 14 days after treatment. The method, boiled down:
as §4

Assay [14] has as its system southern crabgrass. The description is as above. The following applies: 120 g/10a active ingredient; emulsion sprayed seven days after seeding; evaluated 14 days after treatment. The method, boiled down: as §4

As to `CCOC(=O)N(c1ccccc1Cc1c(C)n(C(C)COC)oc1=O)S(=O)(=O)C(F)(F)F` (centres unmarked) [Compound 1-615], the “Herbicidal rate (%) Echinochloa crus-galli” value in assay [1] and in [4] was 90% throughout. In addition, the “Herbicidal rate (%) Scirpus juncoides” value in assay [2] and in [5] was 90% each time. Besides, the “Herbicidal rate (%) Lindernia pyxidaria” value in assay [3] and in assay [6] was 90% throughout. Also, the “Herbicidal rate (%) Monochoria vaginalis” value in assay [3] and in assay [6] was 90% throughout. Further, the “herbicidal rate, Amaranthus viridis” value in assay [7] was determined as 90%. Further, the “herbicidal rate, Chenopodium album” value in assay [8] worked out at 90%. In addition, the “herbicidal rate, Echinochloa crus-galli” value in assay [9] amounted to 90%. Besides, in assay [10], the “herbicidal rate, southern crabgrass” value is given as 90%. Moreover, the “herbicidal effect (herbicidal rate), Amaranthus viridis” value (“herbicidal effect … Amaranthus viridis” below) in [11] is recorded as 40%. The “herbicidal effect (herbicidal rate), Chenopodium album” value (from here on “herbicidal effect … Chenopodium album”) in assay [12] is reported as 40%. In addition, the “herbicidal effect (herbicidal rate), Echinochloa crus-galli” value in assay [13] came out at 90%. For the same molecule, the “herbicidal effect (herbicidal rate), southern crabgrass” value (from here on “herbicidal effect … southern crabgrass”) in assay [14] is 90%.
With `CCOC(=O)N(c1ccccc1Cc1c(C)n(CCSC)oc1=O)S(=O)(=O)C(F)(F)F` [Compound 1-620], the “Herbicidal rate (%) Echinochloa crus-galli” value in assay [1] and in assay [4] was 90% in each case. In addition, the “Herbicidal rate (%) Scirpus juncoides” value in [2] and in [5] was 90% in each case. The “Herbicidal rate (%) Lindernia pyxidaria” value in assay [3] and in assay [6] was 90% each time. Also, the “Herbicidal rate (%) Monochoria vaginalis” value in assay [3] and in assay [6] was 90% throughout. Further, in [7], the “herbicidal rate, Amaranthus viridis” value stood at 90%. Moreover, the “herbicidal rate, Chenopodium album” value in assay [8] amounted to 90%. In assay [9], the “herbicidal rate, Echinochloa crus-galli” value was 90%. Besides, the “herbicidal rate, southern crabgrass” value in assay [10] came out at 90%. In addition, the “herbicidal effect … Amaranthus viridis” value in [11] amounted to 40%. Further, the “herbicidal effect … Chenopodium album” value in assay [12] was 40%. The “herbicidal effect (herbicidal rate), Echinochloa crus-galli” value in assay [13] is listed as 90%. Also, the “herbicidal effect … southern crabgrass” value in [14] is 90%.
In the case of `CCOC(=O)N(c1ccccc1Cc1c(C)n(C(C)c2ccccc2)oc1=O)S(=O)(=O)C(F)(F)F` (centres unmarked) [Compound 1-626], the “Herbicidal rate (%) Echinochloa crus-galli” value in assay [1] and in [4] was 90% each time. Further, the “Herbicidal rate (%) Scirpus juncoides” value in assay [2] and in assay [5] was 90% in each case. Also, the “Herbicidal rate (%) Lindernia pyxidaria” value in assay [3] and in assay [6] was 90% throughout. Further, the “Herbicidal rate (%) Monochoria vaginalis” value in assay [3] and in assay [6] was 90% throughout. For the same molecule, the “herbicidal rate, Amaranthus viridis” value in [7] is on record as 90%. Moreover, the “herbicidal rate, Chenopodium album” value in assay [8] was determined as 90%. For the same molecule, the “herbicidal rate, Echinochloa crus-galli” value in assay [9] came out at 90%. Besides, in [10], the “herbicidal rate, southern crabgrass” value is reported as 90%. The “herbicidal effect … Amaranthus viridis” value in assay [11] was 40%. Also, in assay [12], the “herbicidal effect … Chenopodium album” value stood at 40%. In addition, in assay [13], the “herbicidal effect (herbicidal rate), Echinochloa crus-galli” value is reported as 90%. The “herbicidal effect … southern crabgrass” value in assay [14] was 90%.
For the molecule `CCC(C)n1oc(=O)c(Cc2ccccc2N(C(=O)OC(C)C)S(=O)(=O)C(F)(F)F)c1C` (centres unmarked) [Compound 1-642], the “Herbicidal rate (%) Echinochloa crus-galli” value in assay [1] and in assay [4] was 90% in each case. Further, the “Herbicidal rate (%) Scirpus juncoides” value in assay [2] and in [5] was 90% each time. In addition, the “Herbicidal rate (%) Lindernia pyxidaria” value in assay [3] and in assay [6] was 90% each time. Besides, the “Herbicidal rate (%) Monochoria vaginalis” value in [3] and in assay [6] was 90% each time. Further, the “herbicidal rate, Amaranthus viridis” value in [7] came out at 90%. Moreover, in assay [8], the “herbicidal rate, Chenopodium album” value was 90%. For the same molecule, the “herbicidal rate, Echinochloa crus-galli” value in assay [9] is recorded as 90%. For the same molecule, the “herbicidal rate, southern crabgrass” value in [10] was 90%. In addition, the “herbicidal effect … Amaranthus viridis” value in assay [11] is reported as 40%. Moreover, the “herbicidal effect … Chenopodium album” value in assay [12] was determined as 40%. The “herbicidal effect (herbicidal rate), Echinochloa crus-galli” value in assay [13] was 90%. Further, the “herbicidal effect … southern crabgrass” value in [14] is reported as 90%.
Turning to `COCC(C)n1oc(=O)c(Cc2ccccc2N(C(=O)OC(C)C)S(=O)(=O)C(F)(F)F)c1C` (centres unmarked) [Compound 1-647], the “Herbicidal rate (%) Echinochloa crus-galli” value in [1] and in assay [4] was 90% in each case. The “Herbicidal rate (%) Scirpus juncoides” value in assay [2] and in assay [5] was 90% throughout. The “Herbicidal rate (%) Lindernia pyxidaria” value in [3] and in assay [6] was 90% throughout. Besides, the “Herbicidal rate (%) Monochoria vaginalis” value in [3] and in [6] was 90% each time. The “herbicidal rate, Amaranthus viridis” value in assay [7] is given as 90%. For the same molecule, in assay [8], the “herbicidal rate, Chenopodium album” value stood at 90%. Besides, the “herbicidal rate, Echinochloa crus-galli” value in assay [9] is given as 90%. Besides, the “herbicidal rate, southern crabgrass” value in assay [10] was 90%. Also, in [11], the “herbicidal effect … Amaranthus viridis” value is listed as 40%. Also, the “herbicidal effect … Chenopodium album” value in assay [12] worked out at 40%. The “herbicidal effect (herbicidal rate), Echinochloa crus-galli” value in [13] is given as 90%. In addition, in [14], the “herbicidal effect … southern crabgrass” value was 90%.
For the molecule `CSCCn1oc(=O)c(Cc2ccccc2N(C(=O)OC(C)C)S(=O)(=O)C(F)(F)F)c1C` [Compound 1-652], the “Herbicidal rate (%) Echinochloa crus-galli” value in [1] and in [4] was 90% throughout. Besides, the “Herbicidal rate (%) Scirpus juncoides” value in [2] and in [5] was 90% throughout. The “Herbicidal rate (%) Lindernia pyxidaria” value in assay [3] and in assay [6] was 90% each time. The “Herbicidal rate (%) Monochoria vaginalis” value in [3] and in assay [6] was 90% in each case. For the same molecule, the “herbicidal rate, Amaranthus viridis” value in assay [7] came to 90%. Further, the “herbicidal rate, Chenopodium album” value in assay [8] is reported as 90%. For the same molecule, the “herbicidal rate, Echinochloa crus-galli” value in [9] is 90%. In addition, the “herbicidal rate, southern crabgrass” value in assay [10] was 90%. The “herbicidal effect … Amaranthus viridis” value in assay [11] amounted to 40%. Moreover, in assay [12], the “herbicidal effect … Chenopodium album” value was determined as 40%. The “herbicidal effect (herbicidal rate), Echinochloa crus-galli” value in assay [13] came out at 90%. Besides, in assay [14], the “herbicidal effect … southern crabgrass” value is 90%.
With `Cc1c(Cc2ccccc2N(C(=O)OC(C)C)S(=O)(=O)C(F)(F)F)c(=O)on1C(C)c1ccccc1` (centres unmarked) [Compound 1-653], the “Herbicidal rate (%) Echinochloa crus-galli” value in assay [1] and in assay [4] was 90% each time. Also, the “Herbicidal rate (%) Scirpus juncoides” value in assay [2] and in assay [5] was 90% throughout. In addition, the “Herbicidal rate (%) Lindernia pyxidaria” value in [3] and in assay [6] was 90% in each case. Moreover, the “Herbicidal rate (%) Monochoria vaginalis” value in [3] and in assay [6] was 90% each time. For the same molecule, the “herbicidal rate, Amaranthus viridis” value in assay [7] worked out at 90%. Also, the “herbicidal rate, Chenopodium album” value in [8] was determined as 90%. Moreover, the “herbicidal rate, Echinochloa crus-galli” value in [9] was determined as 90%. In addition, the “herbicidal rate, southern crabgrass” value in assay [10] came out at 90%. In assay [11], the “herbicidal effect … Amaranthus viridis” value came out at 40%. The “herbicidal effect … Chenopodium album” value in assay [12] was determined as 40%. In addition, the “herbicidal effect (herbicidal rate), Echinochloa crus-galli” value in assay [13] came out at 90%. Further, the “herbicidal effect … southern crabgrass” value in [14] is given as 90%.
Take `Cc1c(Cc2ccccc2N(C(=O)OCC(C)C)S(=O)(=O)C(F)(F)F)c(=O)on1C` [Compound 1-666]: the “Herbicidal rate (%) Echinochloa crus-galli” value in assay [1] and in assay [4] was 100% throughout. The “Herbicidal rate (%) Scirpus juncoides” value in assay [2] and in assay [5] was 90% each time. Also, the “Herbicidal rate (%) Lindernia pyxidaria” value in assay [3] came out at 80%; in assay [6] it was 90%. In addition, the “Herbicidal rate (%) Monochoria vaginalis” value in assay [3] is listed as 100%; in [6] it was 90%. Besides, the “herbicidal rate, Amaranthus viridis” value in assay [7] is 0%. Also, in assay [8], the “herbicidal rate, Chenopodium album” value is recorded as 40%. Further, the “herbicidal rate, Echinochloa crus-galli” value in assay [9] came to 90%. Also, the “herbicidal rate, southern crabgrass” value in assay [10] is recorded as 100%. For the same molecule, the “herbicidal effect … Amaranthus viridis” value in [11] turned out to be 40%. Also, the “herbicidal effect … Chenopodium album” value in assay [12] turned out to be 50%. For the same molecule, the “herbicidal effect (herbicidal rate), Echinochloa crus-galli” value in assay [13] was 90%. For the same molecule, the “herbicidal effect … southern crabgrass” value in assay [14] was 70%.
